According to patent publication US20250025439A1, “DERIVATIVES OF NIFUROXAZIDE FOR USE IN THE TREATMENT OF MITOCHONDRIAL DISORDERS AND NEURODEGENERATIVE DISEASES” (priority 2021, published 2025):

Key:
Vigilin (HDLBP) = molecular target: T1, Vigilin (HDLBP) (Homo sapiens, UniProt Q00341); assay: Affinity chromatography with NFX-beads and mass spectrometry; assay type: binding; conditions: spectral counts, NFX coupled beads vs beads alone, human fibroblast extracts
T1 construct: Protein extracts from human fibroblasts were incubated with magnetic beads; endogenous in cells; host or cells: human fibroblast lysate
T1 sequence (Q00341 1-1268): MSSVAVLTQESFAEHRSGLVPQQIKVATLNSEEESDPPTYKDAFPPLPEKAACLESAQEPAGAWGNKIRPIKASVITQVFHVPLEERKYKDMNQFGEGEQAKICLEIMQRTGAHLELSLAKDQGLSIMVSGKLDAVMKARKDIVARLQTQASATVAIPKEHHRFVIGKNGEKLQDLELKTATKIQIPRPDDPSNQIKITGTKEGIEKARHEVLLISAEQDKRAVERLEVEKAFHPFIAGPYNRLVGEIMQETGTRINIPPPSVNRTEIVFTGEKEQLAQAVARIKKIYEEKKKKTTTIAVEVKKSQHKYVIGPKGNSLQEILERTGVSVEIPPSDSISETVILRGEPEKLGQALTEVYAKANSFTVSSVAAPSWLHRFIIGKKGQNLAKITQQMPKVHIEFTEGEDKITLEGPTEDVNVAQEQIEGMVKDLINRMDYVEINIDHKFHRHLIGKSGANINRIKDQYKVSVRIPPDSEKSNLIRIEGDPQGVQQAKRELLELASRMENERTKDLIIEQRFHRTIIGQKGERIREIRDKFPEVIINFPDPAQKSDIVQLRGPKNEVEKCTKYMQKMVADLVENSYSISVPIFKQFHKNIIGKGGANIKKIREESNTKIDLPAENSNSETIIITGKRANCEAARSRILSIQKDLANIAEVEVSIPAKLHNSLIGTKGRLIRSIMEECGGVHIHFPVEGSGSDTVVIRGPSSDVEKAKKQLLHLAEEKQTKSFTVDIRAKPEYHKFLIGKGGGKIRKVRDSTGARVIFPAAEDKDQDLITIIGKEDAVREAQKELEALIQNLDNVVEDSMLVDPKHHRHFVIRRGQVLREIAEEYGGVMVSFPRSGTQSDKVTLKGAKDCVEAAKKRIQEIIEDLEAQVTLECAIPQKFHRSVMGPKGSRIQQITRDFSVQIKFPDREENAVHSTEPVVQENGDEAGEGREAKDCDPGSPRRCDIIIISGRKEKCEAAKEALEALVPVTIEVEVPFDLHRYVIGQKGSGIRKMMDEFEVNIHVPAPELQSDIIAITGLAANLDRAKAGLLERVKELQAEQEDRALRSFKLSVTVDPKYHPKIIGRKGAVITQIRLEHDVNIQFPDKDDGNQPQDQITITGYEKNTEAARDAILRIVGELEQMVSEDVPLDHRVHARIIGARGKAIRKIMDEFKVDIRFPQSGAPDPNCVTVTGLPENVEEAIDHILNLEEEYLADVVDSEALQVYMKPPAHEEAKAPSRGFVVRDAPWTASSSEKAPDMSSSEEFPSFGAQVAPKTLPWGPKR
Description: (§1) Fibroblasts were trypsinized and washed with PBS 1× then incubated in lysis buffer on ice during 20 minutes (Lysis buffer: Tris-HCl pH 7.5 50 mM, EDTA 2 mM, Triton X-100 0.1% supplemented with anti-protease and anti-phosphatase (Complete-Mini™—Roche). After centrifugation 15 minutes, 13 000 rpm at 4° C., supernatant was conserved and the protein concentration was determined using the Pierce BCA assay kit (Thermo Fisher Scientific).
(§2) 10 μL of magnetic beads and NFX-beads were washed three times in Bead buffer before to be resuspended 100 μL of Bead buffer (Bead buffer: Tris-HCl pH 7.5 50 mM, NaCl 150 mM, Triton X-100 0.1%, supplemented with anti-protease and anti-phosphatase (Complete-Mini™—Roche)) thanks to a magnetic rack (DynaMag-2 Ref 12321D Life Technologies). 800 μg of proteins were mixed with 100 μL of diluted beads and the final volume was set to 800 μL with Bead buffer. The proteins and the beads were incubated 30 minutes with rotation in a cold room. Using a magnetic rack, the beads were separated from the protein extract and washed three time with Bead buffer before to be resuspended in 75 μL of Laemmli2X. Laemmli with beads was put 5 minutes at 95° C. to eluate the proteins and the beads were discarded using a magnetic rack. 35 μL of the eluted proteins were subjected to SDS-PAGE and silver coloration (ProteoSilver™ Silver Stain Kit—Sigma Aldrich). Bands of interest were extracted from the gel and subjected to mass spectrometry.
(§3) Mass spectrometric identification and quantification of the pulled down proteins were performed as previously described (Shrivastava et al., EMBO, 2019, 38:e99871). The raw data were cleaned using the following pathway. First, only the proteins found to interact with the NFX coupled beads in the three replicates were kept for further analysis. […] The final proteins were then classified based on the fold chance and the p-value.
(§4) Identification of the NFX intracellular targets is a crucial step in understanding its mechanisms of action and to be able to improve its efficiency on a rational basis. To purify NFX-binding proteins, affinity chromatography purification was performed using magnetic beads. Protein extracts from human fibroblasts were incubated with magnetic beads alone or to which NFX has been covalently coupled (Scheme 1). Eluted fractions were subjected to SDS-PAGE electrophoresis and silver staining (FIG. 9A). The pattern was clearly different between eluted proteins from NFX-beads compared to those eluted form beads alone with 13 bands either appeared or were of a higher intensity with the NFX-beads (FIG. 9B). Excised bands were subjected to proteolytic digestion and mass spectrometry.

[1] = molecular target: T2, Mitogen-activated protein kinase (MAP4K4) (Homo sapiens, UniProt O95819); assay: as above; assay type: binding; conditions: spectral counts, NFX coupled beads vs beads alone, human fibroblast extracts
T2 construct: Protein extracts from human fibroblasts were incubated with magnetic beads; endogenous in cells; host or cells: human fibroblast lysate
Description: as §1, §2, §3, §4

T2 sequence (O95819 whole entry): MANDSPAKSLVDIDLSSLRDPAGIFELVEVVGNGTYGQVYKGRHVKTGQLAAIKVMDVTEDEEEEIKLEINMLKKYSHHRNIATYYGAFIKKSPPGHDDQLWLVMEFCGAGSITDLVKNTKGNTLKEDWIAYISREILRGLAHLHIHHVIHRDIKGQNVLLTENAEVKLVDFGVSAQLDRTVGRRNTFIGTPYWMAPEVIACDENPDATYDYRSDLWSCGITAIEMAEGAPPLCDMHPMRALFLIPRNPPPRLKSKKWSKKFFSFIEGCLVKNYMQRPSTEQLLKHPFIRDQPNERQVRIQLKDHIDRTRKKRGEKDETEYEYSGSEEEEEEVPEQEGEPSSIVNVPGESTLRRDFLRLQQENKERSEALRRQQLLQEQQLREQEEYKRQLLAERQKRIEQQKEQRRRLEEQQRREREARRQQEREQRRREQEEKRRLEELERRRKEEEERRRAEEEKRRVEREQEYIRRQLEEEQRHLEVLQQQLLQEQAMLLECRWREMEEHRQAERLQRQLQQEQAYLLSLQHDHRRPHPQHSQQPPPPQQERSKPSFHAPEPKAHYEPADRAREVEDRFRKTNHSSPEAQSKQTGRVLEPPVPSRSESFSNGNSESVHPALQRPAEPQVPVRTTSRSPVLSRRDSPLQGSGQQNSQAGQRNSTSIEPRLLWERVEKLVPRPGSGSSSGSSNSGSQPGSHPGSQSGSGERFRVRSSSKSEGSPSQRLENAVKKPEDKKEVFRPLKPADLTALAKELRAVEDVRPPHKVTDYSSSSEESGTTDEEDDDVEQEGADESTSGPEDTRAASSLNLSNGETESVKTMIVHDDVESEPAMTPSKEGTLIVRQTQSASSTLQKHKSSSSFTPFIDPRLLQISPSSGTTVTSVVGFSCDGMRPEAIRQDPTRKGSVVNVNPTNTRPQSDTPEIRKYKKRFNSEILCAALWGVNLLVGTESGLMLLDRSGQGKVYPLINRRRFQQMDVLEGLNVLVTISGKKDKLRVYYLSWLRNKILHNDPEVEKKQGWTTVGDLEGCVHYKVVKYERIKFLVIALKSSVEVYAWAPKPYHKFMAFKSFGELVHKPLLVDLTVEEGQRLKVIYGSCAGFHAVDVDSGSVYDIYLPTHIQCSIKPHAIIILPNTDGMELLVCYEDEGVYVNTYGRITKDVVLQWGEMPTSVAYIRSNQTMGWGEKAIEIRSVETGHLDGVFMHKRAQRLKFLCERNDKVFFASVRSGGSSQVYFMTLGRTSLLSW

Fold change (Vigilin (HDLBP)): 77.14
Fold change [1]: 29.76
Structure (SMILES): O=C(N/N=C/c1ccc([N+](=O)[O-])o1)c1ccc(O)cc1 [NFX, (E)-4-hydroxy-N′-((5-nitrofuran-2-yl)methylene)benzohydrazide]
